Data taken from ChEMBL document CHEMBL4406869, “Benzo[b]thiophene-thiazoles as potent anti-Toxoplasma gondii agents: Design, synthesis, tyrosinase/tyrosine hydroxylase inhibitors, molecular docking study, and antioxidant activity” (Eur J Med Chem, 2019).

How the values were obtained:
[1] = test system: L929; assay: Cytotoxicity against mouse L929 cells assessed as reduction in cell viability after 24 hrs by MTT assay; assay type: cell-based; conditions: l929, 24 h
[2] = molecular target: T1, Tyrosinase (Agaricus bisporus, UniProt O42713); assay: Inhibition of mushroom tyrosinase using L-dopa as substrate by spectrophotometric method
T1 sequence (O42713 whole entry): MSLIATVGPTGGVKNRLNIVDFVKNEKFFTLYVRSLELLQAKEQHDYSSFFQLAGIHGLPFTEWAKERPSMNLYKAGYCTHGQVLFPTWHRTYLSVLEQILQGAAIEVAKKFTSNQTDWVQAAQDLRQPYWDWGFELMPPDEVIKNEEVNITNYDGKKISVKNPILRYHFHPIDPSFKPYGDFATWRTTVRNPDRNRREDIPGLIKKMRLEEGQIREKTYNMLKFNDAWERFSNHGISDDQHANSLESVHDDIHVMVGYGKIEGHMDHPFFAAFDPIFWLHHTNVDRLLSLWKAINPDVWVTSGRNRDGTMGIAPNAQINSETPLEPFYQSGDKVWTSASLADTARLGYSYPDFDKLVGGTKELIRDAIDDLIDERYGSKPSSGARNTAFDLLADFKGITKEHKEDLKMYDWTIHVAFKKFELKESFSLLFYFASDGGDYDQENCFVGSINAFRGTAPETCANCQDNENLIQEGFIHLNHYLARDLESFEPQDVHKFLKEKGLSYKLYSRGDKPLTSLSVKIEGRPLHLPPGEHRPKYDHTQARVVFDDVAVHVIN

[3] = Potency index, ratio of butylated hydroxytoluene IC50 to test compound IC50 for antioxidant activity assessed as DPPH radical scavenging activity; assay type: functional
[4] = Antioxidant activity assessed as DPPH radical scavenging activity incubated for 30 mins under dark condition by Uv-vis spectrophotometric method; assay type: functional
[5] = Selectivity ratio of CC30 for cytotoxicity against mouse L929 cells to IC50 for antiparasitic activity against Toxoplasma gondii RH infected in human Hs27 cells; assay type: toxicity, cell-based
[6] = test system: Toxoplasma gondii; assay: Antiparasitic activity against Toxoplasma gondii ME49 tachyzoites infected in human Hs27 cells assessed as inhibition of parasitic growth preincubated for 24 hrs followed by [5,6-3H]uracil addition and measured after 72 hrs by liquid scintillation counting analysis; assay type: functional, organism-based
[7] = Selectivity ratio of CC30 for cytotoxicity against mouse L929 cells to IC50 for antiparasitic activity against Toxoplasma gondii Me49 infected in human Hs27 cells; assay type: toxicity, cell-based
[8] = test system: Toxoplasma gondii; assay: (§1) Antiparasitic activity against Toxoplasma gondii RH tachyzoites infected in human Hs27 cells assessed as inhibition of parasitic growth preincubated for 24 hrs followed by [5,6-3H]uracil addition and measured after 72 hrs by liquid scintillation counting analysis; assay type: functional, organism-based
[9] = test system: Toxoplasma gondii; assay: as §1, with “reduction in parasite proliferation at 100 ug/mL” for “inhibition of parasitic growth”, “analysis relative to control” for “analysis”; assay type: functional; set-up: scale not given: the % may be the effect or the level left
[10] = test system: Toxoplasma gondii; assay: (§2) Antiparasitic activity against Toxoplasma gondii RH tachyzoites infected in human Hs27 cells assessed as reduction in parasite proliferation at 50 ug/mL preincubated for 24 hrs followed by [5,6-3H]uracil addition and measured after 72 hrs by liquid scintillation counting analysis relative to control; assay type: functional; set-up: scale not given: the % may be the effect or the level left
[11] = test system: Toxoplasma gondii; assay: as §2, with “ME49” for “RH”, “12.5” for “50”; assay type: functional; set-up: scale not given: the % may be the effect or the level left
[12] = test system: Toxoplasma gondii; assay: as §2, with “ME49” for “RH”, “1.56” for “50”; assay type: functional; set-up: scale not given: the % may be the effect or the level left
[13] = test system: Toxoplasma gondii; assay: as §2, with “6.25” for “50”; assay type: functional; set-up: scale not given: the % may be the effect or the level left
[14] = test system: Toxoplasma gondii; assay: as §2, with “3.125” for “50”; assay type: functional; set-up: scale not given: the % may be the effect or the level left
[15] = test system: Toxoplasma gondii; assay: as §2, with “ME49” for “RH”, “25” for “50”; assay type: functional; set-up: scale not given: the % may be the effect or the level left
[16] = test system: Toxoplasma gondii; assay: as §2, with “ME49” for “RH”, “3.125” for “50”; assay type: functional; set-up: scale not given: the % may be the effect or the level left
[17] = Cytotoxicity against mouse L929 cells assessed as cell viability at 3.125 ug/ml after 24 hrs by MTT assay relative to control; assay type: cell-based; conditions: read-out: Activity
[18] = Cytotoxicity against mouse L929 cells assessed as cell viability at 50 ug/ml after 24 hrs by MTT assay relative to control; assay type: cell-based; conditions: read-out: Activity
[19] = test system: Toxoplasma gondii; assay: as §2, with “ME49” for “RH”; assay type: functional; set-up: scale not given: the % may be the effect or the level left
[20] = Cytotoxicity against mouse L929 cells assessed as cell viability at 400 ug/ml after 24 hrs by MTT assay relative to control; assay type: cell-based; conditions: read-out: Activity
[21] = test system: Toxoplasma gondii; assay: as §2, with “0.39” for “50”; assay type: functional; set-up: scale not given: the % may be the effect or the level left
[22] = test system: Toxoplasma gondii; assay: as §2, with “1.56” for “50”; assay type: functional; set-up: scale not given: the % may be the effect or the level left
[23] = Cytotoxicity against mouse L929 cells assessed as cell viability at 0.78 ug/ml after 24 hrs by MTT assay relative to control; assay type: cell-based; conditions: read-out: Activity
[24] = Cytotoxicity against mouse L929 cells assessed as cell viability at 12.5 ug/ml after 24 hrs by MTT assay relative to control; assay type: cell-based; conditions: read-out: Activity
[25] = test system: Toxoplasma gondii; assay: Antiparasitic activity against Toxoplasma gondii RH tachyzoites infected in human Hs27 cells assessed as reduction in parasite proliferation at 25 ug/mL preincubated for 24 hrs followed by [5,6-3H]uracil addition and measured after 72 hrs by liquid scintillation counting analysis relative to control; assay type: functional; set-up: scale not given: the % may be the effect or the level left
[26] = Cytotoxicity against mouse L929 cells assessed as cell viability at 6.25 ug/ml after 24 hrs by MTT assay relative to control; assay type: cell-based; conditions: read-out: Activity
[27] = test system: Toxoplasma gondii; assay: as §2, with “0.78” for “50”; assay type: functional; set-up: scale not given: the % may be the effect or the level left
[28] = Cytotoxicity against mouse L929 cells assessed as cell viability at 25 ug/ml after 24 hrs by MTT assay relative to control; assay type: cell-based; conditions: read-out: Activity
[29] = Cytotoxicity against mouse L929 cells assessed as cell viability at 1.56 ug/ml after 24 hrs by MTT assay relative to control; assay type: cell-based; conditions: read-out: Activity
[30] = test system: Toxoplasma gondii; assay: as §2, with “ME49” for “RH”, “100” for “50”; assay type: functional; set-up: scale not given: the % may be the effect or the level left
[31] = Cytotoxicity against mouse L929 cells assessed as cell viability at 200 ug/ml after 24 hrs by MTT assay relative to control; assay type: cell-based; conditions: read-out: Activity
[32] = test system: Toxoplasma gondii; assay: as §2, with “ME49” for “RH”, “6.25” for “50”; assay type: functional; set-up: scale not given: the % may be the effect or the level left
[33] = test system: Toxoplasma gondii; assay: as §2, with “ME49” for “RH”, “0.78” for “50”; assay type: functional; set-up: scale not given: the % may be the effect or the level left
[34] = Cytotoxicity against mouse L929 cells assessed as cell viability at 100 ug/ml after 24 hrs by MTT assay relative to control; assay type: cell-based; conditions: read-out: Activity
[35] = test system: Toxoplasma gondii; assay: as §2, with “12.5” for “50”; assay type: functional; set-up: scale not given: the % may be the effect or the level left

Cc1ccc(-c2csc(N/N=C/c3cc4ccccc4s3)n2)cc1
CC30 [1]: 884.28 µM
IC50 [2]: 466 µM

Fc1ccc(-c2csc(N/N=C/c3cc4ccccc4s3)n2)cc1
CC30 [1]: 1385.75 µM
IC50 [2]: 396 µM

Ic1ccc(-c2csc(N/N=C/c3cc4ccccc4s3)n2)cc1
CC30 [1]: 946.2 µM
IC50 [2]: 431 µM

O=c1oc2ccccc2cc1-c1csc(N/N=C/c2cc3ccccc3s2)n1
Ratio IC50 [3]: 10
IC50 [4]: 15.9 µM

Cc1cc(C(C)(C)C)c(O)c(C(C)(C)C)c1 [BUTYLATED HYDROXYTOLUENE]
IC50 [4]: 180 µM

Clc1ccc(-c2csc(N/N=C/c3cc4ccccc4s3)n2)cc1
CC30 [1]: 1255.05 µM
IC50 [2]: 390 µM

Nc1ccc(S(=O)(=O)Nc2ncccn2)cc1 [SULFADIAZINE]
selectivity ratio [5]: 0.46
IC50 [6]: 13000 µM
CC30 [1]: >= 5000 uM
selectivity ratio [7]: 0.39

Brc1ccc(-c2csc(N/N=C/c3cc4ccccc4s3)n2)cc1
CC30 [1]: 283.56 µM
IC50 [2]: 433 µM

COc1cc(Cc2cnc(N)nc2N)cc(OC)c1OC [TRIMETHOPRIM]
IC50 [8]: 41.8 µM
selectivity ratio [5]: 1.32
IC50 [6]: 39.2 µM
CC30 [1]: 55.11 µM
selectivity ratio [7]: 1.4

C(=N\Nc1nc(C23CC4CC(CC(C4)C2)C3)cs1)/c1cc2ccccc2s1
Activity [9]: 6.32%
IC50 [8]: 51.9 µM
Activity [10]: 28.7%
selectivity ratio [5]: 25.7
Activity [11]: 7.85%
Activity [12]: 49.76%
IC50 [6]: 8.74 µM
Activity [13]: 83.32%
CC30 [1]: 1333.46 µM
selectivity ratio [7]: 153
Activity [14]: 90.86%
Activity [15]: 5.61%
Activity [16]: 25.5%
IC50 [4]: 15.5 µM
viability at 24 h, 3.125 ug/ml [17]: 104%
viability at 24 h, 50 ug/ml [18]: 90.7%
Activity [19]: 1.17%
viability at 24 h, 400 ug/ml [20]: 76.8%
Activity [21]: 1.24%
Activity [22]: 101.85%
viability at 24 h, 0.78 ug/ml [23]: 107%
viability at 24 h, 12.5 ug/ml [24]: 96.5%
Activity [25]: 46.12%
viability at 24 h, 6.25 ug/ml [26]: 101%
Activity [27]: 92.05%
viability at 24 h, 25 ug/ml [28]: 98.3%
viability at 24 h, 1.56 ug/ml [29]: 105%
Activity [30]: 0.53%
viability at 24 h, 200 ug/ml [31]: 81.8%
Activity [32]: 9.6%
Activity [33]: 101.96%
IC50 [2]: 329 µM
viability at 24 h, 100 ug/ml [34]: 89%
Activity [35]: 58.29%
